We go through 43 compounds from patent publication US20130096119A1, “Isoquinolin-3-Ylurea Derivatives” (priority 2010, published 2013).

Converted amounts (≈) assume the structure as drawn.

The test has as its system S. pneumoniae ATCC 49619. In words: Minimal inhibitory concentration (MIC) by microdilution method (CLSI M7-A7). In kind it is cell-based, Streptococcus pneumoniae. Conditions: Streptococcus pneumoniae, ATCC49619, cation-adjusted Mueller-Hinton Broth supplemented with 3% (v/v) lysed horse blood. In short, it runs like this: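 For S. pneumoniae, cation-adjusted Mueller-Hinton broth carried 3% (v/v) lysed horse blood; MICs (mg/l) were read by CLSI M7-A7 microdilution.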
Background: Dilution methods test growth across graded concentrations, often in twofold steps.
One may read the MIC as the least concentration at which growth counts as inhibited. A low value points to inhibition by little substance. In the case of `CCNC(=O)Nc1cc2c(-c3ccc(O)cc3)ccc(Nc3cccnc3)c2cn1` [Example 228, 1-ethyl-3-[5-(4-hydroxy-phenyl)-8-(pyridin-3-ylamino)-isoquinolin-3-yl]-urea], the MIC is 2 µg/mL (≈ 5.01 µM). For `CCNC(=O)Nc1cc2c(-c3ccnc(N)c3)ccc(Nc3cccnc3)c2cn1` [Example 233, 1-[5-(2-amino-pyridin-4-yl)-8-(pyridin-3-ylamino)-isoquinolin-3-yl]-3-ethyl-urea], the MIC stood at 0.5 µg/mL (≈ 1.25 µM). Take `CCNC(=O)Nc1cc2cccc(-c3ccc(C(=O)O)cc3)c2cn1` [Example 123, 4-[3-(3-ethyl-ureido)-isoquinolin-8-yl]-benzoic acid]: the lowest concentration to inhibit growth (MIC) was 4 µg/mL (≈ 11.9 µM). For `CCNC(=O)Nc1cc2cc(NC(=O)c3cccnc3)cc(C)c2cn1` [Example 119, N-[3-(3-ethyl-ureido)-8-methyl-isoquinolin-6-yl]nicotinamide], the MIC was determined as 0.25 µg/mL (≈ 0.716 µM). Turning to `CCNC(=O)Nc1cc2cc(-c3cccc(C(=O)OCC)c3)cc(C)c2cn1` [Example 84, 3-[3-(3-ethyl-ureido)-8-methyl-isoquinolin-6-yl]-benzoic acid ethyl ester], the MIC amounted to 0.5 µg/mL (≈ 1.32 µM).

Consider `CCNC(=O)Nc1cc2cc(-c3ccc4c(c3)CCO4)cc(C)c2cn1` [Example 83, 1-[6-(2,3-dihydro-benzofuran-5-yl)-8-methyl-isoquinolin-3-yl]-3-ethyl-urea], for which the MIC was determined as 1 µg/mL (≈ 2.88 µM). Compound `CCNC(=O)Nc1cc2cccc(Nc3cccc(C(=O)N(C)C)c3)c2cn1.Cl` [Example 199, 3-[3-(3-ethyl-ureido)-isoquinolin-8-ylamino]-N,N-dimethyl-benzamide hydrochloride] had an MIC of 1 µg/mL. `CCNC(=O)Nc1cc2cc(NCc3ccnc(N4CCOCC4)c3)cc(C)c2cn1` [Example 185, 1-ethyl-3-{8-methyl-6-[(2-morpholin-4-yl-pyridin-4-ylmethyl)-amino]-isoquinolin-3-yl}-urea] came in with an MIC of 4 µg/mL (≈ 9.51 µM).

Compound `CCNC(=O)Nc1cc2cc(NC(=O)c3ccc(S(C)(=O)=O)cc3)cc(C)c2cn1` [Example 117, N-[3-(3-ethyl-ureido)-8-methyl-isoquinolin-6-yl]-4-methanesulfonyl-benzamide] registered an MIC of 0.25 µg/mL (≈ 0.586 µM). `CCNC(=O)Nc1cc2cccc(COc3cccnc3C)c2cn1.Cl` [Example 259, 1-ethyl-3-[8-(2-methyl-pyridin-3-yloxymethyl)-isoquinolin-3-yl]-urea hydrochloride] had an MIC of 4 µg/mL. `CCNC(=O)Nc1cc2cccc(Nc3cccc(OC)n3)c2cn1` [Example 178, 1-ethyl-3-[8-(6-methoxy-pyridin-2-ylamino)-isoquinolin-3-yl]-urea]: 2 µg/mL (≈ 5.93 µM) was the least that counted as inhibitory (MIC).

As for `CCNC(=O)Nc1cc2c(CNC)ccc(Nc3cccc(C(=O)O)c3)c2cn1` [Example 272, 3-{[3-(3-ethyl-ureido)-5-[(methylamino)methyl]-isoquinolin-8-yl]amino}-benzoic acid], the MIC was found to be 8 µg/mL (≈ 20.3 µM). Take `CCNC(=O)Nc1cc2cc(NCc3ccc(OC)nc3)cc(C)c2cn1.Cl` [Example 196, 1-ethyl-3-{6-[(6-methoxy-pyridin-3-ylmethyl)-amino]-8-methyl-isoquinolin-3-yl}-urea hydrochloride]: it took 8 µg/mL to inhibit growth (MIC). The value for `CCNC(=O)Nc1cc2cccc(COc3ccncc3)c2cn1.Cl` [Example 262, 1-ethyl-3-[8-(pyridin-4-yloxymethyl)-isoquinolin-3-yl]-urea hydrochloride] was 8 µg/mL; that for `CCNC(=O)Nc1cc2cccc(Nc3cccc(C)n3)c2cn1.Cl` [Example 155, 1-ethyl-3-[8-(6-methyl-pyridin-2-ylamino)-isoquinolin-3-yl]-urea hydrochloride] was 2 µg/mL. Compound `CCNC(=O)Nc1cc2cccc(Nc3cc(C)ccn3)c2cn1.Cl` [Example 162, 1-ethyl-3-[8-(4-methyl-pyridin-2-ylamino)-isoquinolin-3-yl]-urea hydrochloride] came in with an MIC of 2 µg/mL. Take `CCNC(=O)Nc1cc2c(-c3ccc(C(=O)N(C)C)cc3)ccc(C)c2cn1` [Example 5, 4-[3-(3-ethyl-ureido)-8-methyl-isoquinolin-5-yl]-N,N-dimethyl-benzamide]: the MIC stood at 1 µg/mL (≈ 2.66 µM). Compared with the last compound, the MIC is about 2-fold lower. For `CCNC(=O)Nc1cc2c(-c3ccnc(C)c3)ccc(Nc3ccc(C)nc3)c2cn1` [Example 245, 1-ethyl-3-[5-(2-methyl-pyridin-4-yl)-8-(6-methyl-pyridin-3-ylamino)-isoquinolin-3-yl]urea], the MIC turned out to be 0.5 µg/mL (≈ 1.21 µM). This MIC is about 2-fold lower than that of the compound before. The value for `CCNC(=O)Nc1cc2cccc(Cn3cccn3)c2cn1` [Example 295, 1-ethyl-3-(8-pyrazol-1-ylmethyl-isoquinolin-3-yl)-urea] was 8 µg/mL (≈ 27.1 µM); that for `CCNC(=O)Nc1cc2cc(NCc3ccc4ccn(C)c4c3)cc(C)c2cn1.Cl` [Example 135, 1-ethyl-3-{8-methyl-6-[((1-methyl-1H-indol-6-yl)methyl)-amino]-isoquinolin-3-yl}-urea hydrochloride] was 16 µg/mL. With `CCNC(=O)Nc1cc2c(-c3ccncc3)ccc(Nc3cccnc3)c2cn1` [Example 227, 1-ethyl-3-[5-pyridin-4-yl-8-(pyridin-3-ylamino)-isoquinolin-3-yl]-urea], the MIC was 0.125 µg/mL (≈ 0.325 µM). The compound `CCNC(=O)Nc1cc2cccc(Nc3cccnc3OC)c2cn1.Cl` [Example 291, 1-ethyl-3-[8-(2-methoxy-pyridin-3-ylamino)-isoquinolin-3-yl]-urea hydrochloride] registered an MIC of 4 µg/mL. The compound `CCNC(=O)Nc1cc2cccc(Nc3ncccn3)c2cn1` [Example 152, 1-ethyl-3-[8-(pyrimidin-2-ylamino)-isoquinolin-3-yl]-urea] yielded an MIC of 4 µg/mL (≈ 13 µM). `CCNC(=O)Nc1cc2cc(-c3cccc4[nH]ccc34)cc(C)c2cn1` [Example 90, 1-ethyl-3-[6-(1H-indol-4-yl)-8-methyl-isoquinolin-3-yl]-urea] showed an MIC of 2 µg/mL (≈ 5.81 µM). The value for `CCNC(=O)Nc1cc2cccc(Nc3cccc(C(=O)NC)c3)c2cn1.Cl` [Example 200, 3-[3-(3-ethyl-ureido)-isoquinolin-8-ylamino]-N-methyl-benzamide hydrochloride] was 1 µg/mL; that for `CCNC(=O)Nc1cc2cccc(Nc3cccc(C(=O)O)c3)c2cn1` [Example 198, 3-[3-(3-ethyl-ureido)-isoquinolin-8-ylamino]-benzoic acid] was 1 µg/mL (≈ 2.85 µM); that for `CCNC(=O)Nc1cc2cc(NCCOCc3ccccc3)cc(C)c2cn1.Cl` [Example 132, 1-[6-(2-benzyloxy-ethylamino)-8-methyl-isoquinolin-3-yl]-3-ethyl-urea hydrochloride] was 8 µg/mL. `CCNC(=O)Nc1cc2c(F)ccc(-c3cccnc3)c2cn1` [Example 215, 1-ethyl-3-(5-fluoro-8-pyridin-3-yl-isoquinolin-3-yl)-urea]: the lowest concentration to inhibit growth (MIC) was 16 µg/mL (≈ 51.6 µM). Take `CCNC(=O)Nc1cc2cccc(CNc3ccccn3)c2cn1.Cl` [Example 263, 1-ethyl-3-[8-(pyridin-2-ylaminomethyl)-isoquinolin-3-yl]-urea hydrochloride]: inhibition of growth (MIC) required 4 µg/mL.

Compound `CCNC(=O)Nc1cc2cc(-c3ccc4c(c3)OCO4)cc(C)c2cn1` [Example 77, 1-(6-(benzo[1,3]dioxol-5-yl)-8-methyl-isoquinolin-3-yl)-3-ethyl-urea] displayed an MIC of 1 µg/mL (≈ 2.86 µM). The compound `CCNC(=O)Nc1cc2cccc(Nc3ccc(OC)cn3)c2cn1` [Example 181, 1-ethyl-3-[8-(5-methoxy-pyridin-2-ylamino)-isoquinolin-3-yl]-urea] had an MIC of 8 µg/mL (≈ 23.7 µM). `CCNC(=O)Nc1cc2cccc(Nc3ccc(NC(C)=O)cc3)c2cn1` [Example 173, N-{4-[3-(3-ethyl-ureido)-isoquinolin-8-ylamino]-phenyl}-acetamide] returned an MIC of 2 µg/mL (≈ 5.5 µM). As to `CCNC(=O)Nc1cc2cccc(CNc3ncccn3)c2cn1` [Example 304, 1-ethyl-3-[8-(pyrimidin-2-ylaminomethyl)-isoquinolin-3-yl]-urea], 4 µg/mL (≈ 12.4 µM) was the least that counted as inhibitory (MIC). The value for `CCNC(=O)Nc1cc2cccc(CNc3cc(C)ns3)c2cn1` [Example 192, 1-ethyl-3-{8-[(3-methyl-isothiazol-5-ylamino)-methyl]-isoquinolin-3-yl}-urea] was 2 µg/mL (≈ 5.86 µM); that for `CCNC(=O)Nc1cc2cccc(Nc3ccnc(OC)c3)c2cn1` [Example 180, 1-ethyl-3-[8-(2-methoxy-pyridin-4-ylamino)-isoquinolin-3-yl]-urea] was 4 µg/mL (≈ 11.9 µM). `CCNC(=O)Nc1cc2c(-c3cncc(C)c3)ccc(C)c2cn1` [Example 10, 1-ethyl-3-[8-methyl-5-(5-methyl-pyridin-3-yl)-isoquinolin-3-yl]-urea]: the MIC worked out at 2 µg/mL (≈ 6.24 µM). This MIC lies about 2-fold lower than the previous one. For `CCNC(=O)Nc1cc2cccc(Nc3cccc(C(=O)NCc4ccccc4)c3)c2cn1.Cl` [Example 201, N-benzyl-3-[3-(3-ethyl-ureido)-isoquinolin-8-ylamino]-benzamide hydrochloride], the MIC was 2 µg/mL.

For `CCNC(=O)Nc1cc2c(F)c(-c3cnc4ccccc4c3)cc(C)c2cn1` [Example 143, 1-ethyl-3-[5-fluoro-8-methyl-6-(quinolin-3-yl)-isoquinolin-3-yl]-urea], the MIC was found to be 0.125 µg/mL (≈ 0.334 µM).

For the compound `CCNC(=O)Nc1cc2cc(-c3cccc(F)c3)cc(C)c2cn1` [Example 88, 1-ethyl-3-[6-(3-fluoro-phenyl)-8-methyl-isoquinolin-3-yl]-urea], the MIC is 2 µg/mL (≈ 6.18 µM). As to `CCNC(=O)Nc1cc2c(-c3cccc4cnccc34)ccc(C)c2cn1` [Example 67, 1-ethyl-3-(8-methyl-[5,5′]biisoquinolinyl-3-yl)-urea], 16 µg/mL (≈ 44.9 µM) was the least that counted as inhibitory (MIC). Consider `CCNC(=O)Nc1cc2c(-c3ccc(CO)cc3)ccc(Nc3cccc(C(=O)O)c3)c2cn1` [Example 249, 3-[3-(3-ethyl-ureido)-5-(4-hydroxymethyl-phenyl)-isoquinolin-8-ylamino]-benzoic acid], for which inhibition of growth (MIC) required 0.5 µg/mL (≈ 1.1 µM). Regarding `CCNC(=O)Nc1cc2cc(-c3cccc(NC(C)=O)c3)cc(C)c2cn1` [Example 37, N-{3-[3-(3-ethyl-ureido)-8-methyl-isoquinolin-6-yl]-phenyl}-acetamide], it took 1 µg/mL (≈ 2.76 µM) to inhibit growth (MIC).

In the case of `CCNC(=O)Nc1cc2c(F)c(-c3cccnc3)cc(C)c2cn1` [Example 47, 1-ethyl-3-(5-fluoro-8-methyl-6-pyridin-3-yl-isoquinolin-3-yl)-urea], the MIC was determined as 2 µg/mL (≈ 6.17 µM).
